Data on 2 molecules can be found in patent US8759311B2, “Use of siRNA targetting SIPA1L1 for the reduction of adipogenesis” (Sanofi, priority 2009, dated 2014).

One series concerns C57BL/6J mice. Kind of series: high fat diet fed C57BL/6J mice treated with Rimonabant. It counts as in vivo, mouse. To be noted: HFD mice, 10 mg.kg−1.day−1 for one month. From the text: C57BL/6J mice, which are obesity-prone (Collins S. et al., 2004) were fed for 6 months with a high fat diet (HFD).
Another series concerns Sipa1l1. Kind of series: retroviral shRNA transduction of 3T3-L1 cells, Sipa1l1 mRNA by RT-PCR. It counts as cell-based, mouse. To be noted: day 0 prior differentiation. On the procedure: 3T3-L1 cells were cultured in DMEM (Gibco) with 10% FBS (Gibco) at 5% CO2. After retroviral infection (see below), cells were allow to grow to confluence in either 100-mm or 60-mm dishes in DMEM with 10% FBS. Once confluence was reached, cells were exposed to differentiation medium containing dexamethasone (1 μM), insulin (5 μg/ml), and isobutylmethylxanthine ([…]) (DMI). After 2 days cells were maintained in medium containing insulin (5 μg/ml) until ready for harvest at 7 days.
Retroviruses were constructed in the RNAi-Ready pSIREN-RetroQ ZsGreen (pSIREN Clontech) or pMSCV puromycin plasmid (pMSCV, Clontech). Viral constructs were transfected using calcium-phosphate method described in Jordan M. et al (2004) into 293 HEK packaging cells along with constructs encoding gag-pol and the VSV-G protein. Supernatants were harvested after 48 h in presence of 3 μm of Trichostatin A (Sigma) and either used immediately or snap frozen and stored at −80° C. for later use. Viral supernatants were added to the cells for 6 hours in the presence of polybrene (4 μg/ml) and diluted two times with fresh medium for the next 15 hours.
Total RNA was isolated from cultured cells using peqGOLD TriFast reagent according to the manufacturer's instructions (Axonlab). First strand cDNA was synthesized from 0.5 μg of total RNA using random primers and Superscript II (Invitrogen). […]

For the molecule `Cc1c(C(=O)NN2CCCCC2)nn(-c2ccc(Cl)cc2Cl)c1-c1ccc(Cl)cc1` [Rimonabant], in the series on C57BL/6J mice, the body weight result is “normalize” and the glucose tolerance result is given as “normalized”.

B1: shLuc: control shRNA against the firefly luciferase protein (SEQ ID NO. 7) (nucleic acid)
chain: GATCCGTGCGTTGCTAGTACCAATTCAAGAGATTGGTACTAGCAACGCACTTTTTTACGCGTG
modifications: the letters are possibly those of the target site
As for B1, in the series with Sipa1l1, the “knockdown of Sipa1l1 mRNA” value is recorded as “no inhibition”.
